What was measured:
Assay type in all cases: ADME, organism-based
[1] = Clearance in CD-1 mouse at 3 mg/kg, iv and 10 mg/kg, po; conditions: in vivo
[2] = Volume of distribution at steady state in CD-1 mouse at 3 mg/kg, iv and 10 mg/kg, po; conditions: in vivo, read-out: Vdss
[3] = AUC in CD-1 mouse at 10 mg/kg, po; parameters: dose 10 mg/kg, route oral; conditions: plasma
[4] = Half life in CD-1 mouse at 3 mg/kg, iv; parameters: dose 3 mg/kg, route intravenous; conditions: in vivo
[5] = Oral bioavailability in CD-1 mouse at 10 mg/kg; conditions: in vivo

Compound	clearance [1] [mL/min/kg]	Vd [2] [L/kg]	AUC [3] [ng·h/mL]	half-life [4] [min]	bioavailability [5] [%]
Cc1ccc(-c2ncc(C)n2C)cc1NC(=O)c1ccc(OCc2ccccn2)cc1	210	12	100	54	22
Cc1ccc(-c2ncc[nH]2)cc1NC(=O)c1ccc(OCc2ccccn2)cc1	8.3	0.5	12500	60	83
